Data: ChEMBL document CHEMBL1152158, “Trifluoromethylpyrimidine-based inhibitors of proline-rich tyrosine kinase 2 (PYK2): structure-activity relationships and strategies for the elimination of reactive metabolite formation” (Bioorg Med Chem Lett, 2008)

What was measured:
[1] = Oral bioavailability in rat; assay type: ADME, organism-based; details: in vivo
in vitro = details: human, liver microsomes
Description: Metabolic stability in human liver microsomes assessed as hepatic extraction ratio

Focal adhesion kinase 1 [2] = biological target: T1, Focal adhesion kinase 1 (Homo sapiens, UniProt Q05397)
T1 sequence (Q05397 whole entry): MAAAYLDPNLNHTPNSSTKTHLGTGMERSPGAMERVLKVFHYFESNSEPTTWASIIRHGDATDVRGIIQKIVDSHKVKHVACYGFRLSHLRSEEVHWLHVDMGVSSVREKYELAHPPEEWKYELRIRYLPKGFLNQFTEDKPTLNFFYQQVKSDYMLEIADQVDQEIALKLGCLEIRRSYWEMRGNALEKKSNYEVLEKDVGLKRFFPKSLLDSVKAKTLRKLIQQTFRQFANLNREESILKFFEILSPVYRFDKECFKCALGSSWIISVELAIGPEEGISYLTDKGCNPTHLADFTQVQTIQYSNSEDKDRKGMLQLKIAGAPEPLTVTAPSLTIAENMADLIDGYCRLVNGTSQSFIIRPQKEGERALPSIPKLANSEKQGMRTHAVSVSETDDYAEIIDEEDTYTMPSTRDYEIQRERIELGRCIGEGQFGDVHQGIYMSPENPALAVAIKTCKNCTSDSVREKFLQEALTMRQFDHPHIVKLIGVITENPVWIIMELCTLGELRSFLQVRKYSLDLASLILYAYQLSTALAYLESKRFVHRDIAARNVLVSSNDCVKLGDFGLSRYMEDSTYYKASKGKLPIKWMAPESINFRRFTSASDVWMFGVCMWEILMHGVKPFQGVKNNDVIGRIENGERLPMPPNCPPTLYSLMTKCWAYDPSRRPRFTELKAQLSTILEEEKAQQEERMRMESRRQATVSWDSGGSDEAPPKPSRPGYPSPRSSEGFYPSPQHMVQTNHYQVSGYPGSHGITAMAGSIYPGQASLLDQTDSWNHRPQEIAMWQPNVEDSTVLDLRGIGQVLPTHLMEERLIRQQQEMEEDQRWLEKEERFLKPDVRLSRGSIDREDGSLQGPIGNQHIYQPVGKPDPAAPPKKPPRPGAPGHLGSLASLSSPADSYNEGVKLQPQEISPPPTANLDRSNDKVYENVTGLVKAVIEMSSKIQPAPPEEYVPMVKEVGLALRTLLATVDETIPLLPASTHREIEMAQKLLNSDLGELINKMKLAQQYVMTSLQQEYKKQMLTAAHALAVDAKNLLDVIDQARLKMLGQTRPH

[3] = biological target: Protein-tyrosine kinase 2-beta (Homo sapiens, UniProt Q14289)
Sequence of Protein-tyrosine kinase 2-beta (Q14289 whole entry): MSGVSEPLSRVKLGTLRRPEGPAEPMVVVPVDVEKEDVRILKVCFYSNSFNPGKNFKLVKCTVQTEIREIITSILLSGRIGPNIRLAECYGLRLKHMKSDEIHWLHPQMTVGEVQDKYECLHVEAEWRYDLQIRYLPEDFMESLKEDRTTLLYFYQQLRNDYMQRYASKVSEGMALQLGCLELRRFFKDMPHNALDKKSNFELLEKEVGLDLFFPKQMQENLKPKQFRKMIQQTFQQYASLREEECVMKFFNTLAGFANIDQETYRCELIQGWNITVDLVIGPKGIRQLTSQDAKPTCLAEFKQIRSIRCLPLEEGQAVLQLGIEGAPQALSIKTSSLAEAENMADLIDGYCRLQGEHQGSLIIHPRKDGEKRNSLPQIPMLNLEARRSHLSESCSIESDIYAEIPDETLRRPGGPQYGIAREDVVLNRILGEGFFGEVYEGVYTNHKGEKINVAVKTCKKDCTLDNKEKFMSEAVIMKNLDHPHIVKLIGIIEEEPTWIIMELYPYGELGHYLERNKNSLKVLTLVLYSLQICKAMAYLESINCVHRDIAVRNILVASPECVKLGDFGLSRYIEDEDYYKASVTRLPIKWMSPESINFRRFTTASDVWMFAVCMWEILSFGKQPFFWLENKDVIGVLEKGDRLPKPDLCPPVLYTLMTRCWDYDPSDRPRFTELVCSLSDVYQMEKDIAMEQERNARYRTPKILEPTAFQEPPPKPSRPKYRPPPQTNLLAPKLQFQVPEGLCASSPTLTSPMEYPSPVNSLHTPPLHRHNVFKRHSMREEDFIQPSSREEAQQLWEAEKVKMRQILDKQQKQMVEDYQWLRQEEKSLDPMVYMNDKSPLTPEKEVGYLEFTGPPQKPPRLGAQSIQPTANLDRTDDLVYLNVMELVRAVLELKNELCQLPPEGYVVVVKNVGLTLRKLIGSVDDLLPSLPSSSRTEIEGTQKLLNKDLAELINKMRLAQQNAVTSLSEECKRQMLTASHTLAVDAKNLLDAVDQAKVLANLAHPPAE
Description: Inhibition of GST-tagged pyk2 assessed as inhibition of poly-Glu-Tyr phosphorylation

Focal adhesion kinase 1 [4] = biological target: T1, Focal adhesion kinase 1; experiment: Inhibition of GST-tagged FAK assessed as inhibition of poly-Glu-Tyr phosphorylation by fluorescence polarization assay

| bioavailability [1] [%] | hepatic extraction ratio (in vitro) | IC50 (Focal adhesion kinase 1 [4]) [nM] | SMILES | IC50 (Focal adhesion kinase 1 [2]) [nM] | IC50 [3] [nM] |
| --- | --- | --- | --- | --- | --- |
| < 5 |  |  | Cn1ccc2cc(Nc3ncc(C(F)(F)F)c(NCc4ccccn4)n3)ccc21 |  |  |
|  | < 0.3 |  | Cc1cnc(Nc2ccc3c(c2)CC(=O)N3)nc1NCc1ccccn1 | 2200 | > 3000 |
| < 5 |  |  | FC(F)(F)c1cnc(Nc2ccc3[nH]ncc3c2)nc1NCc1ccccn1 |  |  |
|  | 0.66 | 4000 | CN(C)C(=O)c1cccc(Nc2ncc(C(F)(F)F)c(N[C@@H]3CCC[C@H]3N(C)C)n2)c1 | 3900 |  |
|  | < 0.26 |  | CN(C)[C@@H]1CCC[C@H]1Nc1nc(Nc2ccc3c(c2)CS(=O)(=O)N3)ncc1C(F)(F)F | > 650 | 50 |
|  | < 0.26 |  | O=C1Cc2cc(Nc3nccc(NCc4ccccn4)n3)ccc2N1 | > 10000 | > 10000 |
|  | 0.41 |  | CN(C)[C@@H]1CCC[C@H]1Nc1nc(Nc2ccn3ccnc3c2)ncc1C(F)(F)F |  |  |
|  |  |  | O=C1CCCc2cc(Nc3ncc(C(F)(F)F)c(NC4CCC4)n3)ccc2N1 |  | 33 |
|  | 0.48 | 6900 | CN(C)[C@@H]1CCC[C@H]1Nc1nc(Nc2ccncc2)ncc1C(F)(F)F | 4100 |  |
|  | 0.66 |  | CCN(CC)C(=O)c1ccc(Nc2ncc(C(F)(F)F)c(N[C@@H]3CCC[C@H]3N(C)C)n2)cc1 | 3300 |  |

| SMILES | bioavailability [1] [%] | hepatic extraction ratio (in vitro) | IC50 (Focal adhesion kinase 1 [4]) [nM] | IC50 (Focal adhesion kinase 1 [2]) [nM] | IC50 [3] [nM] |
| --- | --- | --- | --- | --- | --- |
| O=C1Cc2cc(Nc3ncc(Cl)c(NCc4ccccn4)n3)ccc2N1 |  | < 0.28 |  | 77 | > 1000 |
| CN(c1ccccc1CNc1nc(Nc2ccc(S(C)(=O)=O)cc2)ncc1C(F)(F)F)S(C)(=O)=O |  | 0.93 |  | 0.94 | 35 |
| O=C1Cc2cc(Nc3ncc(C(F)(F)F)c(NCc4ccccc4)n3)ccc2N1 |  | < 0.26 |  | 34 | 120 |
| CS(=O)(=O)c1ccccc1CNc1nc(Nc2ccc3c(c2)CC(=O)N3)ncc1C(F)(F)F |  | 0.55 |  | 59 | 15 |
| CS(=O)(=O)c1cccc(CNc2nc(Nc3ccc4c(c3)CC(=O)N4)ncc2C(F)(F)F)c1 |  | 0.35 |  | 9 | > 1100 |
| CN(c1cccc(CNc2nc(Nc3ccc4c(c3)CC(=O)N4)ncc2C(F)(F)F)c1)S(C)(=O)=O |  | 0.59 |  | 1.9 | 190 |
